Read-outs that look alike come from different tables or passages of the source. Each block holds one compound with its values, some of them ahead of it.
Experiments:
[1] = molecular target: T1, human TSHR (Homo sapiens, UniProt P16473); experiment: Confirmatory cAMP assay, HEK EM 293 cells stably expressing TSHR; format: cell-based; conditions: 1 h incubation, 1 mM IBMX
T1 construct: expressed in transfected cells
From the text: cDNA for human TSHR was amplified by PCR from hTSHR-pSVL (1) and inserted into the pcDNA3.1(−)/hygromycin vector using restriction sites XhoI and BamHI. cDNA for human LHCGR was amplified by PCR from hLHR-pGS5 (2) and was inserted into the pcDNA3.1(+)/hygromycin vector using restriction sites BamHI and XhoI. The FSHR cDNA in pcDNA3.1 was obtained from the Missouri S&T cDNA Resource Center (www.cDNA.org) and was subcloned into the pcDNA3.1(−)/hygromycin vector. Constructs were confirmed by sequencing (MWG Biotech). HEK-EM 293 cells were transfected with the cDNA of TSHR, LHCGR or FSHR using FuGENE 6 Transfection reagent (Roche Diagnostics) according to the manufacturer's protocol. Two days after transfection cells were passaged and grown in Dulbecco's modified Eagle's Medium (DMEM) supplemented with 10% fetal bovine serum, 100 units/ml penicillin and 10 μg/ml streptomycin (Life Technologies Inc.) and with hygromycin (250 μg/ml) as a selection marker. After 7 to 10 days hygromycin-resistant clones were selected, and after a few days of further growth submitted for a cAMP assay to identify clones that stably express the appropriate receptor. Cell Culture. Cells stably expressing TSHR, LHCGR or FSHR and parental HEK 293 cells were maintained in DMEM medium containing 10% FBS, 100 units/ml Penicillin, 100 μg/ml Streptomycin, at 37° C. in 5% CO2. For the cells lines stably expressing TSHR, LHCGR or FSHR, additional 250 μg/ml Hygromycin was added during the cell culture. The cells were seeded at a density of 3 to 4 million cells in a T175 flask containing 35 ml of media and were allowed to grow for 3 days to reach 80-90% confluence. A flask of HEK 293 cells at this density generally yielded 30 million cells total. Homogeneous Time Resolved Fluorescence (HTRF) cAMP Assay. Compounds were assayed using a HTRF cAMP detection kit (Cisbio, Bedford, Mass.) on both TSHR cell line and parental cell line. Briefly, 750 cells were plated in 2.5 μl/well of complete media (DMEM containing 10% FCS) in 1536 well solid bottom white plates and 20 nl/well compound in DMSO solution or controls was added. Following 30 minute incubation at room temperature, 2.5 μl/well of labeled d2 cAMP and 2.5 μl/well of anti-cAMP antibody (both diluted 1:20 in lysis buffer) were added to each well using a flying reagent dispenser (Aurora Discovery, San Diego). Plates were measured using the Envision plate reader (PerkinElmer, Boston, Mass.) with excitation at 330 nm and emissions of 615 nm and 660 nm. Compound Preparation. […] Data Analysis. […] The EC50 values of compounds were calculated from the concentration-response curves by nonlinear regression analysis using Prism software (GraphPad Software, San Diego, Calif.). Confirmatory cAMP Assay and Test for Selectivity Towards TSHR 50,000 cells/well were plated in complete media (DMEM containing 10% FCS) in 96 well plates. […] Following aspiration of the medium after incubation with compounds, cells were lysed using lysis buffer of the cAMP-Screen Direct™ System (Applied Biosystems, Cat # CSD200). The cAMP content of the cell lysate was determined using the manufacturer's protocol. […] Below is a List of Compounds that were Assayed via the Homogeneous Time Resolved Fluorescence (HTRF) cAMP Assay.

[2] = molecular target: T1, human TSHR; experiment: Homogeneous Time Resolved Fluorescence (HTRF) cAMP assay, TSHR cell line; format: cell-based; conditions: for AC50: HTRF cAMP, TSHR cell line, 30 minute incubation; for Maximum Activity compared to TSH: 100% activity = response of 30 mU/ml TSH, 0% = DMSO control, in %

T1 sequence (P16473 21-764): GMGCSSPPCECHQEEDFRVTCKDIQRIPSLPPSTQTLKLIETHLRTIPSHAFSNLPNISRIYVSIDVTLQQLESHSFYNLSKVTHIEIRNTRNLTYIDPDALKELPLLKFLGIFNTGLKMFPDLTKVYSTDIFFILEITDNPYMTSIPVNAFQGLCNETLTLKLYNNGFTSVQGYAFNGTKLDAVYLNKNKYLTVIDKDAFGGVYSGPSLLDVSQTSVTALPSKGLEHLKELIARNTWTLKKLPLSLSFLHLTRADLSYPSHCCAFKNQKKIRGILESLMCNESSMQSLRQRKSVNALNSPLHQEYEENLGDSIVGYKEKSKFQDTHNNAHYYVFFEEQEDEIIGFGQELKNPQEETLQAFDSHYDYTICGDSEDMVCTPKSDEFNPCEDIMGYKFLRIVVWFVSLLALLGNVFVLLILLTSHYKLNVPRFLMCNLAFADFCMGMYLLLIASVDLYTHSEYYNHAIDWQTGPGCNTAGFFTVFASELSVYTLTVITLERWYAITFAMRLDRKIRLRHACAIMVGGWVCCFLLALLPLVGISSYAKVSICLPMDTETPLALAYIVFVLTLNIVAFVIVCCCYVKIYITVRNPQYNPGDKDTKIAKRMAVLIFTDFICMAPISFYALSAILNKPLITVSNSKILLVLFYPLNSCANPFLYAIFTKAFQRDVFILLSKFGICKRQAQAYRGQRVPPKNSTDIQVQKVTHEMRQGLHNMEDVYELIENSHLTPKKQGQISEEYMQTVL

- EC50 [1]: 0.59 µM
SMILES: COc1ccc(C2Nc3ccccc3C(=O)N2Cc2ccco2)cc1COc1ccc(NC(C)=O)cc1 (stereo not shown) [Compound 3, N-(4-(5-(3-(Furan-2-ylmethyl)-4-oxo-1,2,3,4-tetrahydroquinazolin-2-yl)-2-methoxybenzyloxy)phenyl)acetamide]

- EC50 [1]: 0.1 µM
SMILES: COc1ccc(-c2nc3ccccc3c(=O)n2Cc2ccco2)cc1COc1ccc(NC(C)=O)cc1 [Compound 3/1, N-(4-(5-(3-(Furan-2-ylmethyl)-4-oxo-3,4-dihydroquinazolin-2-yl)-2-methoxybenzyloxy)phenyl)acetamide]

SMILES: COc1ccc(C2Nc3ccccc3C(=O)N2Cc2ccccc2)cc1COc1ccc(NC(C)=O)cc1 (stereo not shown) [Compound 3/2, N-(4-(5-(3-Benzyl-4-oxo-1,2,3,4-tetrahydroquinazolin-2-yl)-2-methoxybenzyloxy)phenyl)acetamide]
- EC50 [1]: 0.541 µM

- EC50 [1]: 0.025 µM
SMILES: COc1ccc(C2Nc3cccc(O)c3C(=O)N2Cc2ccccc2)cc1COc1ccc(NC(C)=O)cc1 (stereo not shown) [Compound 3/4, N-(4-(5-(3-Benzyl-5-hydroxy-4-oxo-1,2,3,4-tetrahydroquinazolin-2-yl)-2-methoxybenzyloxy)phenyl)acetamide]

- EC50 [1]: 0.038 µM
SMILES: COc1ccc(C2Nc3ccccc3C(=O)N2Cc2ccccc2)cc1CSc1ccc(NC(C)=O)cc1 (stereo not shown) [Compound 3/5, N-(4-(5-(3-Benzyl-4-oxo-1,2,3,4-tetrahydroquinazolin-2-yl)-2-methoxybenzylthio)phenyl)acetamide]

- AC50 ([2]; read-out: AC50): 17.8 µM
- Emax ([2]; read-out: Maximum Activity compared to TSH, 100% activity = response of 30 mU/ml TSH, 0% = DMSO control): 24%
SMILES: COc1ccc(C2Nc3ccccc3C(=O)N2Cc2ccccc2C)cc1COc1ccc(NC(C)=O)cc1 (stereo not shown) [Structure 280]

- Maximum Activity compared to TSH [2]: 22.00
- AC50 ([2]; read-out: AC50): 5.62 µM
SMILES: COc1ccc(C2Nc3ccccc3C(=O)N2Cc2ccccc2C)cc1COc1ccc(NC(C)=O)cc1 (stereo not shown) [Structure 281]

- AC50 [2]: inactive
SMILES: COc1ccc(C2Nc3ccccc3C(=O)N2Cc2ccco2)cc1COc1ccc(N)cc1 (stereo not shown) [Structure 282]

- AC50 [2]: inactive
SMILES: COc1ccc(C2Nc3ccccc3C(=O)N2Cc2ccco2)cc1COc1c(C)cccc1C (stereo not shown) [Structure 284]

- AC50 [2]: inactive
SMILES: COc1ccc(CNCc2ccccc2)cc1COc1ccc(NC(C)=O)cc1 [Structure 285]

- Maximum Activity compared to TSH [2]: 30.00
- AC50 ([2]; read-out: AC50): 22.4 µM
SMILES: O=C(c1ccccc1O)N(Cc1ccccc1)Cc1cccs1 [Structure 287]

- Maximum Activity compared to TSH [2]: 20.50
- AC50 ([2]; read-out: AC50): 2.24 µM
SMILES: COc1ccc(C2Nc3ccccc3C(=O)N2Cc2cccc3ccccc23)cc1COc1ccc(NC(C)=O)cc1 (stereo not shown) [Structure 288]

- AC50 [2]: inactive
SMILES: COc1ccc(C2Nc3ccccc3C(=O)N2Cc2ccco2)cc1COc1ccc([N+](=O)[O-])cc1 (stereo not shown) [Structure 289]

- AC50 [2]: inactive
SMILES: COc1ccc(C2Nc3ccccc3C(=O)N2Cc2ccco2)cc1COc1ccc([N+](=O)[O-])cc1 (stereo not shown) [Structure 290]

- Maximum Activity compared to TSH [2]: 38.00
- AC50 ([2]; read-out: AC50): 35.5 µM
SMILES: COc1ccc(CN(Cc2ccccc2)C(=O)c2ccccc2O)cc1 [Structure 291]

- AC50 [2]: inactive
SMILES: COc1ccc(-c2nc3ccc(NC(=O)CO)cc3c(=O)n2Cc2cccc(Cl)c2)cc1COc1ccc(NC(C)=O)cc1 [Structure 292]

- AC50 [2]: inactive
SMILES: COc1ccc(CN2C(=O)N(c3ccccc3)C(=O)C2c2ccccc2)cc1COc1ccc(NC(C)=O)cc1 (stereo not shown) [Structure 293]

Reference: patent US9458141B2, “Low molecular weight thyroid stimulating hormone receptor (TSHR) agonists” (The United States of America, as represented by the …, priority 2008, dated 2016)
